Experimental data taken from the supplement of paper PMC10307832.

What was measured:
Experiment in all cases: relative viability (nuclei count vs DMSO), 5 days (fraction); higher = more cells survive
[1] = compound: CN[C@@H]1C[C@H]2O[C@@](C)([C@@H]1OC)n1c3ccccc3c3c4c(c5c6ccccc6n2c5c31)C(=O)NC4 [Staurosporine] + CS(=O)(=O)CCNCc1ccc(-c2ccc3ncnc(Nc4ccc(OCc5cccc(F)c5)c(Cl)c4)c3c2)o1 [Lapatinib] (partner 2 µM)
In short: (§1)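 A single step with final 0.05% Triton X-100, 1% formaldehyde and 1 ug/ml Hoechst fixed the cells and stained nuclei 5 days after treatment. Lung cancer cell lines in 1536-well plates had been treated by pin tool the day after seeding with one drug alone or a fixed anchor-drug dose plus five library-drug doses (not always all listed) in √10 steps, and nuclei were counted on 4× images. Relative viability is the ratio of nuclei in treated wells to nuclei in vehicle wells, taken as the median of duplicate plates.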

Sulindac + Palbociclib = compound: CC1=C(CC(=O)O)c2cc(F)ccc2/C1=C\c1ccc([S+](C)[O-])cc1 [Sulindac] + CC(=O)c1c(C)c2cnc(Nc3ccc(N4CCNCC4)cn3)nc2n(C2CCCC2)c1=O [Palbociclib] (partner 0.5 µM)
In short: as §1

Sulindac + Pictilisib = compound: CC1=C(CC(=O)O)c2cc(F)ccc2/C1=C\c1ccc([S+](C)[O-])cc1 [Sulindac] + CS(=O)(=O)N1CCN(Cc2cc3nc(-c4cccc5[nH]ncc45)nc(N4CCOCC4)c3s2)CC1 [Pictilisib] (partner 1 µM)
In short: as §1

Staurosporine + Olaparib = compound: CN[C@@H]1C[C@H]2O[C@@](C)([C@@H]1OC)n1c3ccccc3c3c4c(c5c6ccccc6n2c5c31)C(=O)NC4 [Staurosporine] + O=C(c1cc(Cc2n[nH]c(=O)c3ccccc23)ccc1F)N1CCN(C(=O)C2CC2)CC1 [Olaparib] (partner 8 µM)
In short: as §1

Cell Line | relative viability ([1]; first compound 0.005 µM) | relative viability ([1]; first compound 0.01581 µM) | relative viability ([1]; first compound 0.05 µM) | relative viability ([1]; first compound 0.1581 µM) | relative viability ([1]; first compound 0.5 µM) | relative viability (Sulindac + Palbociclib; first compound 0.08 µM) | relative viability (Sulindac + Palbociclib; first compound 0.253 µM) | relative viability (Sulindac + Palbociclib; first compound 0.8 µM) | relative viability (Sulindac + Palbociclib; first compound 2.53 µM) | relative viability (Sulindac + Palbociclib; first compound 8 µM) | relative viability (Sulindac + Pictilisib; first compound 0.08 µM) | relative viability (Sulindac + Pictilisib; first compound 0.253 µM) | relative viability (Sulindac + Pictilisib; first compound 0.8 µM) | relative viability (Sulindac + Pictilisib; first compound 2.53 µM) | relative viability (Sulindac + Pictilisib; first compound 8 µM) | relative viability (Staurosporine + Olaparib; first compound 0.005 µM) | relative viability (Staurosporine + Olaparib; first compound 0.01581 µM) | relative viability (Staurosporine + Olaparib; first compound 0.05 µM) | relative viability (Staurosporine + Olaparib; first compound 0.1581 µM) | relative viability (Staurosporine + Olaparib; first compound 0.5 µM)
NCI-H1993 | 0.775 | 0.536 | 0.639 | 0.485 | 0.409 | 0.666 | 0.658 | 0.591 | 0.727 | 0.604 | 0.827 | 0.787 | 0.769 | 0.732 | 0.927 | 0.941 | 0.73 | 0.717 | 0.497 | 0.313
NCI-H358 | 0.534 | 0.378 | 0.259 | 0.152 | 0.136 | 0.135 | 0.139 | 0.129 | 0.139 | 0.136 | 0.262 | 0.324 | 0.316 | 0.269 | 0.352 | 0.519 | 0.403 | 0.0954 | 0.0798 | 0.058
SK-LU-1 | 0.611 | 0.266 | 0.153 | 0.162 | 0.16 | 0.387 | 0.417 | 0.464 | 0.369 | 0.408 | 0.582 | 0.592 |  | 0.49 | 0.703 | 0.337 | 0.172 | 0.156 | 0.128 | 0.13
NCI-H1915 | 1.05 |  | 0.584 | 0.272 | 0.192 | 0.566 | 0.538 | 0.574 | 0.517 | 0.506 | 0.975 | 0.927 | 0.761 | 0.887 | 1.05 | 0.214 | 0.124 | 0.159 | 0.0952 | 0.0708
NCI-H650 | 0.503 | 0.393 | 0.286 | 0.245 | 0.184 | 0.313 | 0.347 | 0.32 | 0.28 | 0.402 | 0.839 | 0.889 | 0.785 | 0.915 | 0.912 | 0.313 | 0.246 | 0.25 | 0.229 | 0.124
NCI-H441 |  |  |  |  |  | 0.193 | 0.183 | 0.188 | 0.207 | 0.195 | 0.627 | 0.452 | 0.373 | 0.469 | 0.603 | 0.352 | 0.319 | 0.205 | 0.176 | 0.115
COR-L 105 | 0.354 | 0.247 | 0.247 | 0.243 | 0.218 | 0.387 | 0.402 | 0.365 | 0.412 | 0.395 | 0.392 | 0.36 | 0.36 | 0.338 | 0.489 | 0.562 | 0.401 | 0.326 | 0.386 | 0.26
NCI-H2009 | 0.249 | 0.152 | 0.251 | 0.125 | 0.0882 | 0.176 | 0.209 | 0.234 | 0.17 | 0.242 | 1.04 | 0.8 | 0.788 | 0.71 | 0.932 | 0.532 | 0.248 | 0.0909 | 0.112 | 0.0765
NCI-H1437 | 0.698 | 0.346 | 0.453 | 0.152 | 0.0978 | 0.358 | 0.296 | 0.294 | 0.314 | 0.333 | 0.417 | 0.504 | 0.405 | 0.386 | 0.489 | 0.506 | 0.456 | 0.401 | 0.168 | 0.106
NCI-H1703 | 0.45 | 0.313 | 0.245 | 0.172 | 0.151 |  |  |  |  |  | 0.229 | 0.238 | 0.219 | 0.229 | 0.291 | 0.269 | 0.165 | 0.237 | 0.112 | 0.106
EBC-1 | 0.187 | 0.177 | 0.189 | 0.122 | 0.127 |  |  |  |  |  | 0.382 | 0.422 | 0.343 | 0.342 | 0.49 | 0.485 | 0.184 | 0.165 | 0.159 | 0.149
NCI-H1563 | 0.71 | 0.541 | 0.594 | 0.539 | 0.472 |  |  |  |  |  | 0.609 | 0.662 | 0.665 | 0.65 | 0.622 |  |  |  |  | 
SW 900 |  |  |  |  |  | 0.479 | 0.584 |  |  | 0.496 |  |  |  |  |  | 0.544 | 0.428 | 0.362 | 0.212 | 0.169
NCI-H1299 | 0.985 | 0.414 | 0.326 | 0.201 | 0.171 |  |  |  |  |  | 0.671 | 0.9 | 0.651 | 0.778 | 0.878 | 0.493 | 0.263 | 0.251 | 0.117 | 
A549 | 0.823 | 0.715 | 0.499 | 0.0558 | 0.0481 |  |  |  |  |  | 0.573 | 0.528 | 0.327 | 0.467 | 0.857 | 0.0788 | 0.0424 | 0.126 | 0.034 | 0.0268
NCI-H2342 |  |  |  |  |  | 0.466 | 0.482 | 0.536 | 0.481 | 0.56 |  |  |  |  |  | 0.436 | 0.315 | 0.363 | 0.398 | 0.394
Calu-6 | 0.87 | 0.51 | 0.277 | 0.136 | 0.085 |  |  |  |  |  | 1.03 | 0.989 | 0.799 | 0.949 | 1.17 | 0.483 | 0.294 | 0.201 | 0.106 | 0.092
ChaGo-K-1 |  |  |  |  |  | 1.09 | 0.918 | 0.838 | 0.924 | 0.988 | 0.808 | 0.645 | 0.74 | 0.647 | 1.45 | 0.43 |  | 0.342 | 0.232 | 0.243
LCLC-103H |  |  |  |  |  | 0.465 | 0.496 | 0.478 | 0.453 | 0.424 | 0.757 | 0.612 | 0.545 | 0.642 | 0.748 | 0.851 | 0.477 | 0.403 | 0.247 | 
NCI-H596 | 1.08 | 0.749 | 0.419 | 0.181 | 0.157 |  |  |  |  |  | 0.391 | 0.378 | 0.413 | 0.37 | 0.411 | 0.854 | 0.542 | 0.302 | 0.25 | 0.297
